The record followed here is US8796244B2, “Imidazopyridine derivatives as inhibitors of receptor tyrosine kinases” (Astex Therapeutics Ltd, priority 2008, dated 2014).

The assay concerns parental wild-type Ba/F3 cells. The assay is described as follows: Ba/F3 (WT) cell proliferation assay (Alamar Blue). It counts as cell-based. To be noted: Mus musculus; for inhibition at 3 µM / inhibition at 10 µM / inhibition at 1 µM: BaF3, read-out: BaF3 WT prolif, % inhibition.
Where [1] appears, read: BaF3, 72 hours, Alamar Blue, read-out: BaF3 WT prolif.
Setting [2] is: BaF3, 72 h, read-out: BaF3 WT prolif (μM).

Counter-ions that a name gives are not always drawn. Like-named read-outs stand apart in the source and are kept apart here.

For `Cc1nc(-c2ccn3c(-c4cccc(NC(=O)NCC(F)(F)F)c4)cnc3c2)cc(N2CCN(CCO)CC2)n1` [Example 194], the inhibition at 3 µM was determined as 26%.
Turning to `CC(C)(C(=O)NC1CC1)n1cc(-c2ccn3c(-c4cccc(NC(=O)NCC(F)(F)F)c4)cnc3c2)cn1` [Example 71, N-Cyclopropyl-2-[4-(3-{3-[3-(2,2,2-trifluoro-ethyl)-ureido]-phenyl}-imidazo[1,2-a]pyridin-yl)-pyrazol-1-yl)-isobutyramide], the IC50 under setting [1] was found to be 1.5 µM.
For `CC(=O)N1CCN(c2ccc(-c3ccn4c(-c5cccc(NC(=O)NCC(F)(F)F)c5)cnc4c3)cn2)CC1` [Example 145, 1-(3-{7-[6-(4-Acetyl-piperazin-1-yl)-pyridin-3-yl]-imidazo[1,2-a]pyridin-3-yl}-phenyl)-3-(2,2,2-trifluoro-ethyl)-urea], under setting [1], the IC50 was found to be 0.82 µM.
Consider `Nc1nc(-c2ccn3c(-c4cccc(NC(=O)NCC(F)(F)F)c4)cnc3c2)ccc1C(F)(F)F` [Example 231], for which the inhibition at 10 µM was found to be 23%.
Regarding `NC(=O)c1ccc(-c2ccn3c(-c4cccc(NC(=O)NCC(F)(F)F)c4)cnc3c2)nc1` [Example 207], the inhibition at 10 µM is 14%.
As for `Cn1cncc1/C=C/c1ccn2c(-c3cccc(NC(=O)NCC(F)(F)F)c3)cnc2c1` [Example 155, 1-(3-{7-[(E)-2-(3-Methyl-3H-imidazol-4-yl)-vinyl]-imidazo[1,2-a]pyridin-3-yl}-phenyl)-3-(2,2,2-trifluoro-ethyl)-urea], the inhibition at 3 µM was 28%.
As for `O=C(NCC(F)(F)F)Nc1cccc(-c2cnc3cc(-c4cc(F)ccn4)ccn23)c1` [Example 103, 1-{3-[7-(4-Fluoro-pyridin-2-yl)-imidazo[1,2-a]pyridin-3-yl]-phenyl}-3-(2,2,2-trifluoro-ethyl)-urea], the IC50 under setting [1] stood at 0.078 µM.
As for `O=C(NCC(F)(F)F)Nc1cccc(-c2cnc3cc(-c4nccc(-n5ccnc5)n4)ccn23)c1` [Example 213], the inhibition at 10 µM stood at 22%.
Turning to `O=C(NCC(F)(F)F)Nc1cccc(-c2cnc3cc(-c4nccc(N5CCC(O)CC5)n4)ccn23)c1` [Example 109, 1-(3-{7-[4-(4-Hydroxy-piperidin-1-yl)-pyrimidin-2-yl]-imidazo[1,2-a]pyridin-3-yl}-phenyl)-3-(2,2,2-trifluoro-ethyl)-urea], the IC50 under setting [1] stood at 32 µM.
Same read-out and setting: the same measure for `Cc1cc(Cl)nnc1-c1ccn2c(-c3cccc(NC(=O)NCC(F)(F)F)c3)cnc2c1` [Example 136, 1-{3-[7-(6-Chloro-4-methyl-pyridazin-3-yl)-imidazol[1,2-a]pyridin-3-yl]-phenyl}-3-(2,2,2-trifluoro-ethyl)-urea]: 0.44 µM; for `O=C(NCC(F)(F)F)Nc1cccc(-c2cnc3cc(/C=C/CO)ccn23)c1` [Example 206]: 2.9 µM; for `NC1CN(c2ccnc(-c3ccn4c(-c5cccc(NC(=O)NCC(F)(F)F)c5)cnc4c3)n2)C1` [Example 197]: 2.6 µM.
As to `Nc1cnc(-c2ccn3c(-c4cccc(NC(=O)NCC(F)(F)F)c4)cnc3c2)nc1Cl` [Example 170], the inhibition at 3 µM was 14%.
For the compound `O=C(NCC(F)(F)F)Nc1cccc(-c2cnc3cc(-c4ncc(F)c(NC5CC5)n4)ccn23)c1` [Example 180], the inhibition at 10 µM was found to be 42%.
Turning to `Nc1cnc(-c2ccn3c(-c4cccc(NC(=O)NCC(F)(F)F)c4)cnc3c2)nc1N` [Compound 312], the inhibition at 10 µM is 3%.
For the compound `Cc1cc(-c2ccn3c(-c4cccc(NC(=O)NCC(F)(F)F)c4)cnc3c2)nc(C(C)C)n1` [Example 226], the inhibition at 10 µM stood at 40%.
On to `Nc1cc(-c2ccn3c(-c4cccc(NC(=O)NCC(F)(F)F)c4)cnc3c2)ncc1C(F)(F)F` [Example 234], for which the IC50 under setting [1] was found to be 6.4 µM.
Take `NC(=O)Nc1cccc(-c2cnc3cc(Cl)ccn23)c1` [Example 119, [3-(7-Chloro-imidazo[1,2-a]pyridin-3-yl)-phenyl]-urea]: the inhibition at 3 µM worked out at 23%.
As to `CC(C)c1cnc(N)nc1-c1ccn2c(-c3cccc(NC(=O)NCC(F)(F)F)c3)cnc2c1` [Example 242], the IC50 under setting [1] came out at 1.7 µM.
Turning to `Nc1cc(C(F)(F)F)nc(-c2ccn3c(-c4cccc(NC(=O)NCC(F)(F)F)c4)cnc3c2)n1` [Compound 322], under setting [1], the IC50 came to 1.2 µM.
`O=C(NCC(F)(F)F)Nc1cccc(-c2cnc3cc(-c4nccc(N5CC(O)C5)n4)ccn23)c1` [Example 203]: the inhibition at 10 µM was found to be 30%.
Still for that read-out and setting: with `Nc1nc(-c2ccn3c(-c4cc(Cl)cc(NC(=O)NCC(F)(F)F)c4)cnc3c2)ncc1F` [Compound 300] the figure was 0%.
Consider `CCOC(=O)c1cnc(-c2ccn3c(-c4cccc(NC(=O)NCC(F)(F)F)c4)cnc3c2)nc1N` [Compound 287], for which the IC50 under setting [1] was 0.99 µM.
`N#Cc1cc(NC(=O)NCC(F)(F)F)cc(-c2cnc3cc(-c4ccnc(C(F)(F)F)n4)ccn23)c1` [Compound 299]: the inhibition at 1 µM was 17%.
As for `Nc1nc(-c2ccn3c(-c4cccc(NC(=O)NCC(F)(F)F)c4)cnc3c2)ncc1CO` [Compound 332], the inhibition at 10 µM turned out to be 0%.
On to `CCOc1cnc(-c2ccn3c(-c4cccc(NC(=O)NCC(F)(F)F)c4)cnc3c2)nc1` [Example 240], for which the inhibition at 10 µM is 17%.
As to `O=C(NCC(F)(F)F)Nc1cccc(-c2cnc3cc(-c4cc(C(F)(F)F)ncn4)ccn23)c1` [Example 227], the IC50 under setting [1] was determined as 3.6 µM.
As to `Cc1cccnc1-c1ccn2c(-c3cccc(NC(=O)NCC(F)(F)F)c3)cnc2c1` [Example 104, 1-{3-[7-(3-Methyl-pyridin-2-yl)-imidazo[1,2-a]pyridin-3-yl]-phenyl}-3-(2,2,2-trifluoro-ethyl)-urea formate], the IC50 under setting [2] turned out to be 0.4 µM.
Turning to `O=C(NCC(F)(F)F)Nc1cccc(-c2cnc3cc(-c4cc(=O)[nH]cn4)ccn23)c1` [Example 184], the inhibition at 10 µM came to 22%.
In the case of `Cn1ccnc1C#Cc1ccn2c(-c3cccc(NC(=O)NCC(F)(F)F)c3)cnc2c1` [Compound 282], the inhibition at 10 µM turned out to be 23%. In addition, the IC50 under setting [1] stood at 2.8 µM.
For `CN(C)S(=O)(=O)n1ccnc1-c1ccnc(-c2ccn3c(-c4cccc(NC(=O)NCC(F)(F)F)c4)cnc3c2)n1` [Example 216], the inhibition at 10 µM worked out at 28%.
Turning to `COc1cc(NC(=O)NCC(F)(F)F)cc(-c2cnc3cc(-c4ccnc(C(F)(F)F)n4)ccn23)c1` [Compound 298], under setting [1], the IC50 is 3 µM.
With `O=C(NCC(F)(F)F)Nc1cccc(-c2cnc3cc(-c4nccc(C(=O)N5CCOCC5)n4)ccn23)c1` [Example 221], the inhibition at 3 µM was found to be 21%.
Consider `COC(=O)c1cnc(-c2ccn3c(-c4cccc(NC(=O)NCC(F)(F)F)c4)cnc3c2)nc1` [Compound 290], for which the inhibition at 1 µM amounted to 16%.
`CC(F)(F)c1cnc(-c2ccn3c(-c4cccc(NC(=O)NCC(F)(F)F)c4)cnc3c2)nc1` [Compound 293]: the inhibition at 3 µM amounted to 36%.
On to `Nc1cccc(-c2ccn3c(-c4cccc(NC(=O)NCC(F)(F)F)c4)cnc3c2)n1` [Example 106, 1-{3-[7-(6-Amino-pyridin-2-yl)-imidazo[1,2-a]pyridin-3-yl]-phenyl}-3-(2,2,2-trifluoro-ethyl)-urea hydrochloride], for which the IC50 under setting [2] worked out at 0.41 µM.
Regarding `Cc1nnc(-c2ccn3c(-c4cccc(NC(=O)NC5CC5)c4)cnc3c2)o1` [Example 157, 1-Cyclopropyl-3-{3-[7-(5-methyl-[1,3,4]oxadiazol-2-yl)-imidazo[1,2-a]pyridin-3-yl]-phenyl}-urea], the inhibition at 10 µM turned out to be 38%.
Regarding `COCc1cc(-c2ccn3c(-c4cccc(NC(=O)NCC(F)(F)F)c4)cnc3c2)nc(N)n1` [Compound 335], the inhibition at 10 µM was 20%. For the same compound, the IC50 under setting [1] came out at 0.74 µM.
As to `Nc1nccnc1-c1ccn2c(-c3cccc(NC(=O)NCC(F)(F)F)c3)cnc2c1` [Example 84, 1-{3-[7-(3-Amino-pyrazin-2-yl)-imidazo[1,2-a]pyridin-3-yl]-phenyl}-3-(2,2,2-trifluoro-ethyl)-urea], the IC50 under setting [1] stood at 1.4 µM.
`COc1cncnc1-c1ccn2c(-c3cccc(NC(=O)NCC(F)(F)F)c3)cnc2c1` [Example 140, 1-{3-[7-(5-Methoxy-pyrimidin-4-yl)-imidazo[1,2-a]pyridin-3-yl]-phenyl}-3-(2,2 ,2-trifluoro-ethyl)-urea]: the inhibition at 10 µM amounted to 7.1%.
For `O=C(NCC(F)(F)F)Nc1cc(F)cc(-c2cnc3cc(-c4ncccn4)ccn23)c1` [Compound 302], the inhibition at 10 µM was determined as 0%.
On to `CC(C)(C)OC(=O)NCC1CCN(c2ccc(-c3ccn4c(-c5cccc(NC(=O)NCC(F)(F)F)c5)cnc4c3)cn2)CC1` [Compound 318], for which, under setting [1], the IC50 is 0.42 µM.
On the same count and under the same terms, with `Cc1cnnc(-c2ccn3c(-c4cccc(NC(=O)NCC(F)(F)F)c4)cnc3c2)n1` [Example 142, 1-{3-[7-(5-Methyl-[1,2,4]triazin-3-yl)-imidazo[1,2-a]pyridin-3-yl]-phenyl}-3-(2,2,2-trifluoro-ethyl)-urea] the figure was 1.1 µM.
In the case of `O=C(NCC(F)(F)F)Nc1cc(O)cc(-c2cnc3cc(-c4ccnc(C(F)(F)F)n4)ccn23)c1` [Compound 303], the inhibition at 10 µM worked out at 0%.
In the case of `COc1ccc(-c2ccn3c(-c4cccc(NC(=O)NCC(F)(F)F)c4)cnc3c2)nc1` [Example 204], the IC50 under setting [1] was determined as 0.82 µM.
Same read-out and setting: the same measure for `Cc1cc(-c2ccn3c(-c4cccc(NC(=O)NCC(F)(F)F)c4)cnc3c2)nnc1Cl` [Example 135, 1-{3-[7-(6-Chloro-5-methyl-pyridazin-3-yl)-imidazo[1,2-a]pyridin-3-yl]-phenyl}-3-(2,2,2-trifluoro-ethyl)-urea]: 0.51 µM.
The same measure, in the same setting: with `CC(C)n1ccnc1C#Cc1ccn2c(-c3cccc(NC(=O)NCC(F)(F)F)c3)cnc2c1` [Compound 266] the figure was 1.4 µM.
In the case of `O=C(NCC(F)(F)F)Nc1cccc(-c2cnc3cc(-c4cnc(O)cn4)ccn23)c1` [Example 105, 1-{3-[7-(5-Hydroxy-pyrazin-2-yl)-imidazo[1,2-a]pyridin-3-yl]-phenyl}-3-(2,2,2-trifluoro-ethyl)-urea hydrochloride], the inhibition at 10 µM was 16%.
`Nc1nc(-c2ccn3c(-c4cccc(NC(=O)NCC(F)(F)F)c4)cnc3c2)ncc1OCCO` [Compound 316]: the inhibition at 10 µM was determined as 0%.
As for `Cc1nc2cc(-c3ccn4c(-c5cccc(NC(=O)NCC(F)(F)F)c5)cnc4c3)ccc2s1` [Example 219], the IC50 under setting [1] is 3.5 µM.

One may read the inhibition as the percentage by which the read-out fell short of the control.
